Read-outs that look alike come from different tables or passages of the source. Blank lines part the entries; values can stand above or below the compound they belong to.
Key:
[1] = Stability in cryopreserved hepatocytes, rat; details: for AUC: rat
[2] = Stability in liver microsomes, human; details: for AUC: human
[3] = Stability in human subcutaneous skin homogenate; details: for AUC: human
[4] = Stability in cryopreserved hepatocytes, dog; details: for AUC: dog
[5] = Stability in liver microsomes, dog
[6] = Stability in liver microsomes, rat
[7] = rat
[8] = dog
[9] = Stability in cryopreserved hepatocytes, human; details: for AUC: human

SMILES: CCCCCC(CCC1C(O)CC2Cc3c(cccc3OCC(=O)O)CC21)OC(=O)COc1ccc(OC(F)(F)F)cc1 (stereo not drawn) [LXIV]
Trep Concentration (μM) 0 min [1]: 0.0456 µM | Trep Concentration (μM) 15 min [1]: 0.374 µM | Trep Concentration (μM) 30 min [1]: 0.291 µM | Trep Concentration (μM) 60 min [1]: 0.234 µM | Trep Concentration (μM) 120 min [1]: 0.206 µM | AUC [1]: 29.21 µmol·min/L | Trep Concentration 0 min [2]: 0.911 µM | Trep Concentration 10 min [2]: 0.752 µM | Trep Concentration 20 min [2]: 0.667 µM | Trep Concentration 30 min [2]: 0.596 µM | Trep Concentration 60 min [2]: 0.351 µM | AUC [2]: 35.93 µmol·min/L | Trep Concentration 0 min [3]: 0 µM | Trep Concentration 30 min [3]: 0.0793 µM | Trep Concentration 60 min [3]: 0.155 µM | Trep Concentration 120 min [3]: 0.283 µM | AUC [3]: 17.84 µmol·min/L | Trep Concentration (μM) 0 min [4]: 0.0196 µM | Trep Concentration (μM) 15 min [4]: 0.466 µM | Trep Concentration (μM) 30 min [4]: 0.514 µM | Trep Concentration (μM) 60 min [4]: 0.485 µM | Trep Concentration (μM) 120 min [4]: 0.451 µM | AUC [4]: 54.06 µmol·min/L | Trep Concentration 0 min [5]: 0.453 µM | Trep Concentration 10 min [5]: 0.548 µM | Trep Concentration 20 min [5]: 0.592 µM | Trep Concentration 30 min [5]: 0.603 µM | Trep Concentration 60 min [5]: 0.627 µM | Trep Concentration 0 min [6]: 0.803 µM | Trep Concentration 10 min [6]: 0.882 µM | Trep Concentration 20 min [6]: 0.91 µM | Trep Concentration 30 min [6]: 0.902 µM | Trep Concentration 60 min [6]: 0.753 µM | AUC [7]: 51.27 µmol·min/L | AUC [8]: 35.13 µmol·min/L | Trep Concentration (μM) 0 min [9]: 0.0116 µM | Trep Concentration (μM) 15 min [9]: 0.521 µM | Trep Concentration (μM) 30 min [9]: 0.509 µM | Trep Concentration (μM) 60 min [9]: 0.458 µM | Trep Concentration (μM) 120 min [9]: 0.411 µM | AUC [9]: 52.29 µmol·min/L

SMILES: CCCCCC(CCC1C(O)CC2Cc3c(cccc3OCC(=O)O)CC21)OP(=O)(O)O (stereo not drawn) [VI]
Trep Concentration (μM) 0 min [1]: 0.128 µM | Trep Concentration (μM) 15 min [1]: 0.693 µM | Trep Concentration (μM) 30 min [1]: 0.635 µM | Trep Concentration (μM) 60 min [1]: 0.564 µM | Trep Concentration (μM) 120 min [1]: 0.53 µM | AUC [1]: 66.92 µmol·min/L | Trep Concentration 0 min [2]: 0.02 µM | Trep Concentration 10 min [2]: 0.038 µM | Trep Concentration 20 min [2]: 0.038 µM | Trep Concentration 30 min [2]: 0.03 µM | Trep Concentration 60 min [2]: 0.061 µM | AUC [2]: 2.38 µmol·min/L | Trep Concentration 0 min [3]: 0 µM | Trep Concentration 30 min [3]: 0.6 µM | Trep Concentration 60 min [3]: 0.93 µM | Trep Concentration 120 min [3]: 1.07 µM | AUC [3]: 91.95 µmol·min/L | Trep Concentration (μM) 0 min [4]: 0.0124 µM | Trep Concentration (μM) 30 min [4]: 0.609 µM | Trep Concentration (μM) 60 min [4]: 0.533 µM | Trep Concentration (μM) 120 min [4]: 0.548 µM | AUC [4]: 62.94 µmol·min/L | Trep Concentration 0 min [5]: 0.21 µM | Trep Concentration 10 min [5]: 0.32 µM | Trep Concentration 20 min [5]: 0.43 µM | Trep Concentration 30 min [5]: 0.48 µM | Trep Concentration 60 min [5]: 0.75 µM | Trep Concentration 0 min [6]: 0.27 µM | Trep Concentration 10 min [6]: 0.39 µM | Trep Concentration 20 min [6]: 0.46 µM | Trep Concentration 30 min [6]: 0.53 µM | Trep Concentration 60 min [6]: 0.73 µM | AUC [7]: 31.40 µmol·min/L | AUC [8]: 29.40 µmol·min/L | Trep Concentration (μM) 0 min [9]: 0 µM | Trep Concentration (μM) 15 min [9]: 0.223 µM | Trep Concentration (μM) 30 min [9]: 0.365 µM | Trep Concentration (μM) 60 min [9]: 0.466 µM | Trep Concentration (μM) 120 min [9]: 0.540 µM | AUC [9]: 48.73 µmol·min/L

SMILES: CCCCCC(CCC1C(O)CC2Cc3c(cccc3OCC(=O)O)CC21)OC(=O)COc1ccc(O)cc1 (stereo not drawn) [LIV]
Trep Concentration (μM) 0 min [1]: 0.0862 µM | Trep Concentration (μM) 15 min [1]: 0.512 µM | Trep Concentration (μM) 30 min [1]: 0.426 µM | Trep Concentration (μM) 60 min [1]: 0.441 µM | Trep Concentration (μM) 120 min [1]: 0.455 µM | AUC [1]: 51.41 µmol·min/L | Trep Concentration 0 min [2]: 0.908 µM | Trep Concentration 10 min [2]: 0.679 µM | Trep Concentration 20 min [2]: 0.564 µM | Trep Concentration 30 min [2]: 0.463 µM | Trep Concentration 60 min [2]: 0.338 µM | AUC [2]: 31.30 µmol·min/L | Trep Concentration 0 min [3]: 0 µM | Trep Concentration 30 min [3]: 0.486 µM | Trep Concentration 60 min [3]: 0.694 µM | Trep Concentration 120 min [3]: 0.848 µM | AUC [3]: 71.25 µmol·min/L | Trep Concentration (μM) 0 min [4]: 0.00351 µM | Trep Concentration (μM) 15 min [4]: 0.295 µM | Trep Concentration (μM) 30 min [4]: 0.273 µM | Trep Concentration (μM) 60 min [4]: 0.262 µM | Trep Concentration (μM) 120 min [4]: 0.262 µM | AUC [4]: 30.24 µmol·min/L | Trep Concentration 0 min [5]: 0.307 µM | Trep Concentration 10 min [5]: 0.544 µM | Trep Concentration 20 min [5]: 0.678 µM | Trep Concentration 30 min [5]: 0.729 µM | Trep Concentration 60 min [5]: 0.777 µM | Trep Concentration 0 min [6]: 0.849 µM | Trep Concentration 10 min [6]: 0.784 µM | Trep Concentration 20 min [6]: 0.765 µM | Trep Concentration 30 min [6]: 0.709 µM | Trep Concentration 60 min [6]: 0.811 µM | AUC [7]: 46.08 µmol·min/L | AUC [8]: 39.99 µmol·min/L | Trep Concentration (μM) 0 min [9]: 0.0156 µM | Trep Concentration (μM) 15 min [9]: 0.58 µM | Trep Concentration (μM) 30 min [9]: 0.47 µM | Trep Concentration (μM) 60 min [9]: 0.475 µM | Trep Concentration (μM) 120 min [9]: 0.461 µM | AUC [9]: 54.60 µmol·min/L

Further lines, results first:

Trep Concentration (μM) 0 min [1]: 0.0352 µM | Trep Concentration (μM) 15 min [1]: 0.186 µM | Trep Concentration (μM) 30 min [1]: 0.307 µM | Trep Concentration (μM) 60 min [1]: 0.393 µM | Trep Concentration (μM) 120 min [1]: 0.514 µM | AUC [1]: 43.07 µmol·min/L | Trep Concentration 0 min [2]: 0.624 µM | Trep Concentration 10 min [2]: 0.632 µM | Trep Concentration 20 min [2]: 0.549 µM | Trep Concentration 30 min [2]: 0.52 µM | Trep Concentration 60 min [2]: 0.307 µM | AUC [2]: 29.94 µmol·min/L | Trep Concentration 0 min [3]: 0 µM | Trep Concentration 30 min [3]: 0.0277 µM | Trep Concentration 60 min [3]: 0.0597 µM | Trep Concentration 120 min [3]: 0.106 µM | AUC [3]: 6.70 µmol·min/L | Trep Concentration (μM) 0 min [4]: 0.0501 µM | Trep Concentration (μM) 15 min [4]: 0.587 µM | Trep Concentration (μM) 30 min [4]: 0.545 µM | Trep Concentration (μM) 60 min [4]: 0.475 µM | Trep Concentration (μM) 120 min [4]: 0.404 µM | AUC [4]: 54.94 µmol·min/L | Trep Concentration 0 min [5]: 0.913 µM | Trep Concentration 10 min [5]: 0.884 µM | Trep Concentration 20 min [5]: 0.828 µM | Trep Concentration 30 min [5]: 0.894 µM | Trep Concentration 60 min [5]: 0.899 µM | Trep Concentration 0 min [6]: 0.0772 µM | Trep Concentration 10 min [6]: 0.114 µM | Trep Concentration 20 min [6]: 0.157 µM | Trep Concentration 30 min [6]: 0.197 µM | Trep Concentration 60 min [6]: 0.284 µM | AUC [7]: 11.30 µmol·min/L | AUC [8]: 53.05 µmol·min/L | Trep Concentration (μM) 0 min [9]: 0.0377 µM | Trep Concentration (μM) 15 min [9]: 0.406 µM | Trep Concentration (μM) 30 min [9]: 0.534 µM | Trep Concentration (μM) 60 min [9]: 0.553 µM | Trep Concentration (μM) 120 min [9]: 0.506 µM | AUC [9]: 58.45 µmol·min/L
SMILES: CCCCCC(CCC1C(O)CC2Cc3c(cccc3OCC(=O)O)CC21)OC(=O)CO (stereo not drawn) [XLIV]

Trep Concentration (μM) 0 min [1]: 0 µM | Trep Concentration (μM) 15 min [1]: 0.215 µM | Trep Concentration (μM) 30 min [1]: 0.217 µM | Trep Concentration (μM) 60 min [1]: 0.189 µM | Trep Concentration (μM) 120 min [1]: 0.172 µM | AUC [1]: 21.77 µmol·min/L | Trep Concentration 0 min [2]: 1.02 µM | Trep Concentration 10 min [2]: 0.877 µM | Trep Concentration 20 min [2]: 0.755 µM | Trep Concentration 30 min [2]: 0.664 µM | Trep Concentration 60 min [2]: 0.393 µM | AUC [2]: 40.60 µmol·min/L | Trep Concentration 0 min [3]: 0 µM | Trep Concentration 30 min [3]: 0.224 µM | Trep Concentration 60 min [3]: 0.408 µM | Trep Concentration 120 min [3]: 0.657 µM | AUC [3]: 44.79 µmol·min/L | Trep Concentration (μM) 0 min [4]: 0.09 µM | Trep Concentration (μM) 15 min [4]: 0.616 µM | Trep Concentration (μM) 30 min [4]: 0.554 µM | Trep Concentration (μM) 60 min [4]: 0.459 µM | Trep Concentration (μM) 120 min [4]: 0.42 µM | AUC [4]: 55.64 µmol·min/L | Trep Concentration 0 min [5]: 0.987 µM | Trep Concentration 10 min [5]: 0.972 µM | Trep Concentration 20 min [5]: 0.982 µM | Trep Concentration 30 min [5]: 0.993 µM | Trep Concentration 60 min [5]: 0.816 µM | Trep Concentration 0 min [6]: 0.281 µM | Trep Concentration 10 min [6]: 0.369 µM | Trep Concentration 20 min [6]: 0.419 µM | Trep Concentration 30 min [6]: 0.471 µM | Trep Concentration 60 min [6]: 0.433 µM | AUC [7]: 25.20 µmol·min/L | AUC [8]: 56.58 µmol·min/L | Trep Concentration (μM) 0 min [9]: 0.0174 µM | Trep Concentration (μM) 15 min [9]: 0.631 µM | Trep Concentration (μM) 30 min [9]: 0.572 µM | Trep Concentration (μM) 60 min [9]: 0.506 µM | Trep Concentration (μM) 120 min [9]: 0.446 µM | AUC [9]: 58.62 µmol·min/L
SMILES: CCCCCC(CCC1C(O)CC2Cc3c(cccc3OCC(=O)O)CC21)OC(=O)C(C)C (stereo not drawn) [LXVII]
